Tests used:
[1] = test system: mitotic marker phospho-histone H3 at serine 10 (pH3 (Ser10)) in transformed BJ cells; assay: Immunoblot analysis of mitotic marker pH3 (Ser10), derivatives of Compound 1; assay type: cell-based; details: Homo sapiens, band intensities pH3(Ser10)/β-actin vs DMSO control, 24 h
Protocol: (§1) FIG. 4 compares the ability of Compound 1 (a131), and various derivatives thereof (referred to using their code numbers for brevity; the designated chemical compound for each code number is provided in the chemical examples section below), to inhibit autophagy and/or mitosis. BJ transformed cells were treated with 5 μM of various Compounds as shown, for 24 h. Cells were harvested and total lysates were analysed by detecting the mitotic marker phospho-histone H3 at serine 10 (pH3 (Ser10)) and the autophagosome marker LC3. Antibodies raised against β-actin were used as an internal loading control.
(§2) The ability of Compound 1 to inhibit lysosome function was examined using immunoblotting. HeLa cervical cancer cells were cultured in Dulbecco's modified Eagle's medium (DMEM) supplemented with 10% Fetal Bovine Serum (FBS, Thermo Scientific). The HeLa cells were treated with different concentrations of Compound 1 (0.625, 1.25, 2.5, 5 and 10 μM, dimethyl sulfoxide (DMSO, Kanto Kagaku)), chloroquine (CQ) (1.25, 2.5, 10, 50 and 100 μM, DMSO) or DMSO for 6 h. Then, the treated cells were harvested and lysed in 1% triton lysis buffer [25 mM Tris HCl (pH8.0), 150 mM NaCl, 1% triton-X100, 1 mM dithiothreitol (DTT), protease inhibitor mix (Complete Mini, Roche) and phosphatase inhibitor (PhosphoStop, Roche)]. The proteins in total lysates were boiled with sample buffer (60 mM Tris-HCl (pH 6.8), 25% glycerol, 2% SDS, 14.4 mM 2-mercaptoethanol, 0.1% bromophenol blue) and resolved by 14% tris-glycine sodium dodecyl sulfate polyacrylamide gel electrophoresis (SDS-PAGE) and subjected to immunoblot analysis.
(§3) Defects in lysosome function and inhibition of autophagy can be measured by accumulation of LC3-phosphatidylethanolamine conjugated non-soluble form (LC3-II), which are converted from soluble LC3-I. Thus, antibodies raised against LC3 (Cell Signaling, Cat#4108) were used to determine lysosomal function and integrity. Antibodies raised against phosphorylated histone H3 at serine 10 residue (pH3) (Cell signaling, Cat#3377) were used as the marker for mitotic dysfunction and arrest. Antibodies raised against β-actin (Millipore, Cat#MAB1501) were used as an internal loading control. The inhibitory ability of Compound 1 was also quantitatively compared to CQ.
(§4) Derivatives of Compound 1 were tested to see if they had similar dual activity, or presented only one of the activities of Compound 1. The protocol for immunoblot analysis described in Biology Example 1 was applied to the additional indicated compounds.
(§5) Activities of compounds were determined by two independent experiments. First, Compounds were classified according to the intensity of increase in each of the mitotic marker phospho-histone H3 at serine 10 (pH3 (Ser 10)) and the autophagosome marker LC3, respectively, at 1.25 μM, when compared with 1.25 μM Compound 1 (a131).
(§6) Compounds classified “++” on either “mitosis” or “inhibits lysosome” show similar increase in each of the mitotic marker phospho-histone H3 at serine 10 (pH3 (Ser10)) and the autophagosome marker LC3, respectively, at 2.5 μM, when compared with 1.25 μM Compound 1 (a131); and compounds classified “+” on either “mitosis” or “inhibits lysosome” show similar increase in each of the mitotic marker phospho-histone H3 at serine 10 (pH3 (Ser10)) and the autophagosome marker LC3, respectively, at a concentration range of 5-10 μM, when compared with 1.25 μM Compound 1 (a131).
Compounds classified “+/−” on either “mitosis” or “inhibits lysosome” show less increase in each of the mitotic marker phospho-histone H3 at serine 10 (pH3 (Ser10)) and the autophagosome marker LC3, respectively, at a concentration range of 5-10 μM, when compared with 1.25 μM Compound 1 (a131).
Next, the ability of Compound 1 and its derivatives to induce mitotic arrest in transformed BJ cells was quantified as the fold induction of band intensities [pH3(Ser10)/β-actin] in comparison with DMSO control. […]

[2] = test system: pH3 (Ser10) and LC3 in BJ transformed cells; assay: Immunoblot classification of compounds by pH3 and LC3 (FIG. 4); assay type: cell-based, human; details: 5 μM, 24 h
Protocol: as §1, §4

[3] = test system: autophagosome marker LC3 (LC3 II/LC3 I) in transformed BJ cells; assay: Immunoblot analysis of autophagosome marker LC3 (lysosome function), derivatives of Compound 1; assay type: cell-based; details: Homo sapiens, band intensities LC3 II/LC3 I vs DMSO control, 24 h
Protocol: as §1, §2, §3, §4, §5, §6
Compounds classified “+/−” on either “mitosis” or “inhibits lysosome” show less increase in each of the mitotic marker phospho-histone H3 at serine 10 (pH3 (Ser10)) and the autophagosome marker LC3, respectively, at a concentration range of 5-10 μM, when compared with 1.25 μM Compound 1 (a131). […]

Compound	fold induction at 5 µM [1]	Inhibition of lysosome function and/or mitosis (FIG. 4) [2]	fold induction at 5 µM [3]
COc1ccc2[nH]cc(/C(C#N)=C/c3cccc4cnccc34)c2c1 [Compound 2, (Z)-3-(isoquinolin-5-yl)-2-(5-methoxy-1H-indol-3-yl)acrylonitrile]	3	exhibit the dual properties of inhibiting both lysosome function and mitosis	3.2
N#C/C(=C\c1cncc2cnccc12)c1c[nH]c2ccccc12 [Compound 4, (Z)-2-(1H-indol-3-yl)-3-(2,7-naphthyridin-4-yl)acrylonitrile]	1.4		1
N#C/C(=C\c1cccc2cnccc12)c1c[nH]c2c(Br)cccc12 [Compound 5, (Z)-2-(7-bromo-1H-indol-3-yl)-3-(isoquinolin-5-yl)acrylonitrile]	1.4		2.2
COc1cccc2c(/C(C#N)=C/c3cccc4cnccc34)c[nH]c12 [Compound 6, (Z)-3-(isoquinolin-5-yl)-2-(7-methoxy-1H-indol-3-yl)acrylonitrile]	3.9	exhibit the dual properties of inhibiting both lysosome function and mitosis	2.7
N#C/C(=C\c1cccc2cnccc12)c1c[nH]c2ccc(Cl)cc12 [Compound 7, (Z)-2-(5-chloro-1H-indol-3-yl)-3-(isoquinolin-5-yl)acrylonitrile]	1.4	inhibit lysosome function only	2
N#C/C(=C\c1cccc2cnccc12)c1c[nH]c2ccc(Br)cc12 [Compound 8, (Z)-2-(5-bromo-1H-indol-3-yl)-3-(isoquinolin-5-yl)acrylonitrile]	2.1	exhibit the dual properties of inhibiting both lysosome function and mitosis	4
COc1ccc2c(/C(C#N)=C/c3cccc4cnccc34)c[nH]c2c1 [Compound 9, (Z)-3-(isoquinolin-5-yl)-2-(6-methoxy-1H-indol-3-yl)acrylonitrile]	4.3	exhibit the dual properties of inhibiting both lysosome function and mitosis	2.6
N#C/C(=C\c1cccc2cnccc12)c1c[nH]c2cc(Br)ccc12 [Compound 10, (Z)-2-(6-bromo-1H-indol-3-yl)-3-(isoquinolin-5-yl)acrylonitrile]	1.6		0.7
N#C/C(=C\c1cccc2cnccc12)c1c[nH]c2ccc(OCCC3OCCO3)cc12 [Compound 11, (Z)-2-(5-(2-(1,3-dioxolan-2-yl)ethoxy)-1H-indol-3-yl)-3-(isoquinolin-5-yl)acrylonitrile]	1		0.7
COCCOc1ccc2[nH]cc(/C(C#N)=C/c3cccc4cnccc34)c2c1 [Compound 12, (Z)-2-(5-(2-methoxyethoxy)-1H-indol-3-yl)-3-(isoquinolin-5-yl)acrylonitrile]	1.6	inhibit lysosome function only	3.2
N#C/C(=C\c1cccc2cnccc12)c1c[nH]c2ccc(OCCCN3CCCC3)cc12 [Compound 13, (Z)-2-(5-(3-(pyrrolidin-1-yl)propoxy)-1H-indol-3-yl)-3-(isoquinolin-5-yl)acrylonitrile]	0.9	inhibit lysosome function only	6
CC(=O)Nc1ccc2[nH]cc(/C(C#N)=C/c3cccc4cnccc34)c2c1 [Compound 14, N-(3-((Z)-1-cyano-2-(isoquinolin-5-yl)vinyl)-1H-indol-5-yl)acetamide]	1.2		0.5
N#C/C(=C\c1cccc2cnccc12)c1c[nH]c2ccc(NC(=O)CCCC[C@@H]3SC[C@@H]4NC(=O)N[C@@H]43)cc12 [Compound 15, N-(3-((Z)-1-cyano-2-(isoquinolin-5-yl)vinyl)-1H-indol-5-yl)-5-((3aS,4S,6aR)-2-oxohexahydro-1H-thieno[3,4-d]imidazol-4-yl)pentanamide]	1.7		1.1
CC(=O)NCCC(=O)n1cc(/C(C#N)=C/c2cccc3cnccc23)c2ccccc21 [Compound 17, (Z)—N-(3-(3-(1-cyano-2-(isoquinolin-5-yl)vinyl)-1H-indol-1-yl)-3-oxopropyl)acetamide]	2.8		2.3
N#C/C(=C\c1cccc2cnccc12)c1cn(C(=O)CCCC[C@@H]2SC[C@@H]3NC(=O)N[C@@H]32)c2ccccc12 [Compound 18, (Z)-3-(isoquinolin-5-yl)-2-(1-(5-((3aS,4S,6aR)-2-oxohexahydro-1H-thieno[3,4-d]imidazol-4-yl)pentanoyl)-1H-indol-3-yl)acrylonitrile]	2.2	inhibit mitosis only	1.7
CC(C)(C)OC(=O)N1CCC(C(=O)n2cc(/C(C#N)=C/c3cccc4cnccc34)c3ccccc32)CC1 [Compound 19, (Z)-tert-butyl 4-(3-(1-cyano-2-(isoquinolin-5-yl)vinyl)-1H-indole-1-carbonyl)piperidine-1-carboxylate]	16.2	exhibit the dual properties of inhibiting both lysosome function and mitosis	5.2
CC(C)(C)OC(=O)NCCC(=O)n1cc(/C(C#N)=C/c2cccc3cnccc23)c2ccccc21 [Compound 20, (Z)-tert-butyl (3-(3-(1-cyano-2-(isoquinolin-5-yl)vinyl)-1H-indol-1-yl)-3-oxopropyl)carbamate]	4.8	exhibit the dual properties of inhibiting both lysosome function and mitosis	3.9
N#C/C(=C\c1cccc2cnccc12)c1cn(C(=O)CCN)c2ccccc12 [Compound 22, (Z)-2-(1-(3-aminopropanoyl)-1H-indol-3-yl)-3-(isoquinolin-5-yl)acrylonitrile]	2.1	exhibit the dual properties of inhibiting both lysosome function and mitosis	4.1
C(=C\c1c[nH]c2ccccc12)/c1cccc2cnccc12 [Compound 25, 5-((E)-2-(1H-indol-3-yl)vinyl)isoquinoline]	1.3		5.4
O=C(Nc1cccc2cnccc12)c1c[nH]c2ccccc12 [Compound 29, N-(isoquinolin-5-yl)-1H-indole-3-carboxamide]	1.4		0.4

Reference: patent US10308631B2, “Selective anti-cancer compounds” (NATIONAL UNIVERSITY OF SINGAPORE, priority 2015, dated 2019)
